Patent US12246021B2, “Compounds for uses in pharmacological induction of HBF for treatment of sickle cell disease and ß-thalassemia” (Academia Sinica, priority 2019, dated 2025)

Assays:
[1] = test system: human primary erythroid cells; assay: RNA-sequence gene expression profile with Ingenuity Pathways Analysis; type: cell-based; conditions: human primary erythroid cells treated with AS-28
Method: The RNA-sequence data was analyzed by Ingenuity Pathways Analysis (IPA). The top cellular pathways in the primary erythroid cells affected by AS-28 are listed here. DEGs: Fold change ≥1.4, p<0.05.
(§1) In order to examine whether AS-28 would cause cellular toxicity, the gene expression profiles of human primary erythroid cells in culture were compared by RNA-sequence analysis. Several candidate genes, encoding known γ globin gene regulators were selected from the gene list of RNA-sequence data (fold change >1.4) for validation by RT-qPCR (FIG. 7). […] In addition, AS-28 inhibited the expression of γ globin repressor c-MYB (0.5-fold).
To reveal the global effect of AS-28 on human primary erythroid cells, the differentially expressed genes (DEGs) from the RNA-sequence data (fold change ≥1.4 and p<0.05) were selected for analysis by Ingenuity Pathways Analysis (IPA).

[2] = test system: HU-resistant primary human erythroid cells; assay: Cell viability in hydroxyurea-resistant primary human erythroid cells; type: cell-based; conditions: 0.5 μM
Method: (§2) Peripheral blood samples were purchased from the Taipei Blood Center. The concentrated blood was diluted 1:5 (V/V) in phosphate-buffered saline (PBS) and distributed in a thin layer on Ficoll-paque PLUS ([…]) (GE Healthcare) in a SepMate column (STEMCELL). After centrifugation at 1200 g for 10 minutes, the cells in the inter-phase region were collected. The collected cells were washed with PBS and centrifuged at low speed three times. The remaining mononuclear cells were expanded in Phase I medium containing 1×SFEM (STEMCELL), 100 ng/ml SCF, 20 ng/ml IL-3, 20 ng/ml IL-6, and 100 ng/ml Flt3-L at 37° C. in an incubator with 5% CO2 for 7 days. The expanded mononuclear cells were further differentiated in Phase II medium containing 1×SFEM (StemSpan), 20 ng/ml SCF, 5 ng/ml IL-3, 1 U/ml EPO for another 7 days. The differentiated erythroid cells were treated with indicated compounds of different dosages with a seeding density of 5×10^5 cells/ml for another 3 days.
Cell viability was assessed using AlamarBlue reagent (Invitrogen). After 3 days of treatment, 100 μl of treated cell culture was transferred into a 96-well plate and 1/10 volume of AlamarBlue reagent was added and the cell culture was incubated overnight at 37° C. Cell viability was evaluated using a multi-label counter (Ex 530-560 nm, Em 590 nm) (PerkinElmer). […]

NFE2L2 = assay: RT-qPCR of γ-globin transcription regulators in human primary erythroid cells: NFE2L2; type: cell-based; conditions: AS-28 0.5 μM
Method: (§3) The total RNAs were isolated from human primary erythroid cells in culture without (Mock) and with (AS-28) treatment by AS-28, and analyzed by RT-qPCR. N=4 biological experiments, *, p<0.05; ***, p<0.001.
(§4) After 3 days of compound treatment, total RNA was extracted by a Quick-RNA miniprep kit (Zymo) and reverse-transcription was performed using Maxima H Minus Reverse Transcriptase (ThermoFisher Scientific) according to the manufacturer's instructions. Quantitative PCR was performed on a LightCycler system with SYBR green master mix following the manufacturer's instructions (Roche). The relative quantitative RT-PCR data was normalized to the Cq number of […] and compared to a mock control.
as §1

GATA1 = assay: RT-qPCR of γ-globin transcription regulators in human primary erythroid cells: GATA1; type: cell-based; conditions: AS-28 0.5 μM
Method: as §3, §4, §1

γ-globin gene [3] = assay: γ-globin mRNA induction by quantitative RT-PCR in primary human erythroid cell culture; type: cell-based; conditions: 3 days, primary human erythroid cells
Method: as §2, with “The expanded mononuclear cells were further differentiated in Phase II medium containing 1×SFEM (StemSpan), 20 ng/ml SCF, 5 ng/ml IL-3, 1 U/ml EPO for another 7 days. The differentiated erythroid cells were treated with indicated compounds of different dosages with a seeding density of 5×10^5 cells/ml for another 3 days.” left out
as §4
Compound AS-28 was designed based on the pharmacophore of the HbF-inducing compound TN1 (FIGS. 1A-1B). The efficacy of γ-globin gene induction by AS-28 treatment using a primary human erythroid cell culture system was evaluated. […]

γ-globin gene [4] = assay: γ-globin mRNA induction in hydroxyurea-resistant primary human erythroid cells; type: cell-based; conditions: 0.5 μM, HU-resistant primary human erythroid cells
Method: as §2, with “The differentiated erythroid cells were treated with indicated compounds of different dosages with a seeding density of 5×10^5 cells/ml for another 3 days.” left out
as §4, with “control. […]” for “control.”

in vivo = conditions: rat
Excerpt: The abbreviations as defined as follows: IV—intravenous; PO—per-os (oral); T1/2—half-life; CL—clearance; Vss—steady-state distribution volume; AUC(0-inf)—area under the curve; F—bioavailability; ND—not detected.

[5] = Solubility of the compounds; type: physicochemical
SCD mice = assay: Oral AS-28 in SCD mice: blood count, HbF HPLC, F-cells, blood smear; type: in vivo; conditions: 50, 75 or 100 mg/kg oral gavage twice per day, 5 days per week, 4 weeks
Method: Sickle cell disease mice (B6; 129-Hba^tm1(HBA)Tow, Hbb^tm2(HBG1,HBB*)Tow/J) were purchased from Jackson Laboratory and were bred at the AS Core, Academia Sinica. Mice of 6-8 weeks old were used for experiments. Treatment groups received vehicle [20% (2-Hydroxypropyl)-β-cyclodextrin] plus AS-28 (50 mg/kg, 75 mg/kg or 100 mg/kg), which was administered by oral gavage twice per day, 5 days per week, for 4 weeks.
Blood was collected by submandibular blood collection and analysis was performed using a ProCyte Dx automatic analyzer.
10 μl of whole blood was washed twice with PBS and then fixed with 0.05% glutaraldehyde for 10 minutes. After fixation, the cells were washed twice with PBS and then permeabilized by adding cold 0.1% Triton X-100 for 5 minutes. Cells were washed twice with 0.1% BSA/PBS and stained with PE-HbF antibody (BD) for 40 minutes at room temperature (with protection from light). Finally, the cells were washed three times with 0.1% BSA/PBS and passed through a […] cell strainer (Falcon). F-cell % was analyzed by flow cytometry (LSRII-18P, BD).
50 μl of whole blood was lysed in 200 μl ddH2O and centrifuged for 5 minutes at 13,000 rpm to extract the hemolysate. HPLC was performed according to a previously described protocol^22.
For hypoxia treatment, whole blood was incubated in a hypoxic incubator chamber (3% 02) for 30 minutes. […] of whole blood (with or without hypoxia) was used to make blood smears on slides. Slides were air-dried and then stained with Liu-stain before quantifying the percentage of sickle-shaped cells.
To further evaluate the therapeutic potential of AS-28 for treating hemoglobinopathies, SCD mice (an SCD disease animal model generated by the laboratory of Prof. Tim Townes, University of Alabama) were used to examine whether AS-28 treatment could relieve anemia in SCD mice. Different dosages of AS-28 were administered to 6-8 week-old SCD mice over four weeks. After four weeks of oral gavage, blood samples from the treated SCD mice were collected for several biochemical analyses (FIG. 5). […] Reticulocyte (RET), white blood cell (WBC) and neutrophil (NEUT) values were equivalent between AS-28-treated and mock-treated SCD mice. […] A diagnostic indicator of SCD is the characteristic sickle-shaped morphology of red blood cells under hypoxia.

[6] = test system: primary human erythroid cells; assay: Cell viability assay (AlamarBlue) in primary human erythroid cell culture; type: cell-based; conditions: 3 days
Method: as §2, with “The differentiated erythroid cells were treated with indicated compounds of different dosages with a seeding density of 5×10^5 cells/ml for another 3 days.” left out
Cell viability was assessed using AlamarBlue reagent (Invitrogen). […] Cell viability was evaluated using a multi-label counter (Ex 530-560 nm, Em 590 nm) (PerkinElmer).
Compound AS-28 was designed based on the pharmacophore of the HbF-inducing compound TN1 (FIGS. 1A-1B). The efficacy of γ-globin gene induction by AS-28 treatment using a primary human erythroid cell culture system was evaluated. After two weeks of in vitro erythroid cell differentiation, cells were treated with AS-28 for three days and then harvested for quantitative RT-PCR analysis and cell viability assay.

BCL11A protein = assay: Western blot of BCL11A protein in primary human erythroid cells; type: cell-based; conditions: for expression level of BCL11A protein (in words): 3 days, AS-28 at 0.5 μM and 1 μM
Method: as §2
After 3 days of treatment, total protein was extracted by modified RIPA (50 mM Tris-HCl pH7.8, 150 mM NaCl, 1% NP-40, 0.5% sodium deoxycholate, 0.1% SDS, 1 mM EGTA, 5 mM EDTA, 10 mM NaF, 1 mM […] and 1× complete EDTA-free Protease Inhibitor Cocktail). 30 μg of protein extracts were separated by 10% SDS-PAGE and the resulting gel was blotted onto PVDF membrane. After blocking with 5% non-fat milk in TBST, the membrane was incubated overnight with primary antibody against BCL11A or β-actin at 4° C. After incubating with horseradish peroxidase-conjugated secondary antibodies and washing the blot, the signals of indicated proteins were visualized by ECL (PerkinElmer) following the manufacturer's protocol.
BCL11A has been reported as a key negative regulator of γ-globin gene expression^23. Knockdown of BCL11A dramatically increases expression of the γ-globin gene. To investigate whether HbF-inducing agents activate γ-globin gene expression by modulating BCL11A protein levels, primary human erythroid cells were treated with known HbF-inducing agents (HU, NaB, and AS-28 (0.5 μM and 1 μM)), and also Compound II, SS-2394, Compound 3, Compound 8, and then harvested for Western blot analysis (FIG. 4; FIG. 11).

c-MYB = assay: RT-qPCR of γ-globin transcription regulators in human primary erythroid cells: c-MYB; type: cell-based; conditions: AS-28 0.5 μM
Method: as §3, §4, §1

CCN1CCN(c2nc(Nc3cccc(NC(=O)C#Cc4ccc(C)cc4)c3)c3ncn(CC)c3n2)CC1 [AS-28, 3-p-Tolyl-propynoic acid {3-[9-ethyl-2-(4-ethylpiperazin-1-yl)-9H-purin-6-ylamino]phenyl}amide]
top 5 canonical pathways affected (IPA of DEGs, fold change ≥1.4, p<0.05) [1]: does not include the cell toxicity-related pathways | cytotoxicity [2]: only minor cytotoxicity | NFE2L2 expression (γ globin activator), RT-qPCR vs mock (NFE2L2): 1.5 fold | GATA1 expression (γ globin activator), RT-qPCR vs mock (GATA1): 1.5 fold | γ-globin mRNA expression activation (γ-globin gene [3]; 0.5 μM): 3.5 fold | γ-globin induction (γ-globin gene [3]; 1 μM and 2 μM): reduced | γ-globin mRNA expression elevation (γ-globin gene [4]): at least 2 fold | bioavailability (in vivo): ~25% | water solubility [5]: improved | hemoglobin levels (HGB) vs mock-treated control (SCD mice): slightly increased | neutrophil (NEUT) values vs mock-treated (SCD mice): equivalent | percentage of F-cells (flow cytometry) (SCD mice): elevated | percentage of HbF (HPLC) (SCD mice): significantly increased | percentage of sickle-shaped cells in blood smears under hypoxia (SCD mice): significantly decreased | red blood cell (RBC) numbers vs mock-treated control (SCD mice): slightly increased | reticulocyte (RET) values vs mock-treated (SCD mice): equivalent | white blood cell (WBC) values vs mock-treated (SCD mice): equivalent | cytotoxicity ([6]; 0.5 μM): without inducing significant cytotoxicity | cytotoxicity ([6]; 1 μM and 2 μM): cell cytotoxicity | expression level of BCL11A protein (in words) (BCL11A protein): significantly decreased | reduction of BCL11A protein levels (BCL11A protein; FIG. 4): 50% | reduction of BCL11A protein levels (BCL11A protein; FIG. 11): 60% | c-MYB expression (γ globin repressor), RT-qPCR vs mock (c-MYB): 0.5 fold

CCCC(=O)[O-].[Na+] [NaB, sodium butyrate, reference compound]
expression level of BCL11A protein (in words) (BCL11A protein): significantly decreased
